Where a name gives a salt, the structure may show the parent alone.
Columns and labels:
[1] = target: human neutrophil elastase (HNE) (Homo sapiens (Human), UniProt P08246); assay: In vitro HNE inhibition assay (fluorogenic peptide substrate MeOSuc-Ala-Ala-Pro-Val-AMC); format: biochemical; details: HNE concentration of 80 pM; 37° C., 2 hours
Description: B-1. In Vitro HNE Inhibition Assay
The potency of the compounds of the invention is ascertained in an in vitro inhibition assay. The HNE-mediated amidolytic cleavage of a suitable peptide substrate leads in this connection to an increase in the fluorescent light. The signal intensity of the fluorescent light is directly proportional to the enzyme activity. The effective concentration of a test compound at which half the enzyme is inhibited (50% signal intensity of the fluorescent light) is indicated as IC50.
Enzyme (80 pM HNE; from Serva, Heidelberg) and substrate (20 μM MeOSuc-Ala-Ala-Pro-Val-AMC; from Bachem, Weil am Rhein) are incubated in an assay volume of in total 50 μl of assay buffer (0.1 M HEPES pH 7.4, 0.5 M NaCl, 0.1% w/v BSA, 1% v/v DMSO) in a 384-well microtiter plate in the presence and absence of the test substance at 37° C. for 2 hours. The intensity of the fluorescent light from the assay mixtures is measured (Ex. 380 nm, Em. 460 nm). The IC50 values are determined by plotting the intensity of the fluorescent light against the active substance concentration.

pancreas elastase = pancreas elastase (Sus scrofa (Pig), UniProt P00772); details: cited from earlier work
pancreas elastase, sequence (P00772 27-266): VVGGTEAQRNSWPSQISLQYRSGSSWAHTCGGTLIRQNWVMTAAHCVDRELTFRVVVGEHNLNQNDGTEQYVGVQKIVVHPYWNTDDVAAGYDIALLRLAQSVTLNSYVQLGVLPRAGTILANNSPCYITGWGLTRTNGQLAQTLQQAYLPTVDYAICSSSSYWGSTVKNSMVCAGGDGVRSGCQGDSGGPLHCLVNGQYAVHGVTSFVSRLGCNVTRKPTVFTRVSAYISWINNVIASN

human neutrophil elastase (HNE), sequence (P08246 30-267): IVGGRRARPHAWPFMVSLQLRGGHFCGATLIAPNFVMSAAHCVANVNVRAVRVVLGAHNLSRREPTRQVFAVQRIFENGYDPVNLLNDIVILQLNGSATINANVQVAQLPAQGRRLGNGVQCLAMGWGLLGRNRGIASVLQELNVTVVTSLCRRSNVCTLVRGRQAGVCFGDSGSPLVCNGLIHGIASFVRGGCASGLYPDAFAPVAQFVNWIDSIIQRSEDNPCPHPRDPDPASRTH

SMILES: CC1=C(C#N)[C@@H](c2ccc(C#N)cc2S(C)(=O)=O)n2nc(N)nc2N1c1cccc(C(F)(F)F)c1 [Example 9, (7S)-2-Amino-7-[4-cyano-2-(methylsulfonyl)phenyl]-5-methyl-4-[3-(trifluoromethyl)phenyl]-4,7-dihydro[1,2,4]triazolo[1,5-a]pyrimidine-6-carbonitrile hydrochloride]
- IC50 [1]: < 0.3 nM

SMILES: CCOC(=O)C1=C(C)N(c2cccc(C(F)(F)F)c2)c2nccn2[C@@H]1c1ccc(C#N)cc1 [Example 90, Ethyl (5R)-5-(4-cyanophenyl)-7-methyl-8-[3-(trifluoromethyl)phenyl]-5,8-dihydroimidazo[1,2-a]-pyrimidine-6-carboxylate]
- IC50 [1]: 6.5 nM

SMILES: CC1=C(C#N)C(c2ccc(C#N)cc2S(C)(=O)=O)n2nc(N3C(=O)c4ccccc4C3=O)nc2N1c1cccc(C(F)(F)F)c1 (racemic) [Example 5, (rac)-7-[4-Cyano-2-(methylsulfonyl)phenyl]-2-(1,3-dioxo-1,3-dihydro-2H-isoindol-2-yl)-5-methyl-4-[3-(trifluoromethyl)phenyl]-4,7-dihydro[1,2,4]triazolo[1,5-a]pyrimidine-6-carbonitrile]
- IC50 [1]: < 0.3 nM

SMILES: CCOC(=O)Nc1nc2n(n1)C(c1ccc(C#N)cc1)C(C(=O)OCC)=C(C)N2c1cccc(C(F)(F)F)c1 (centres unmarked) [Example 50, Ethyl 7-(4-cyanophenyl)-2-[(ethoxycarbonyl)amino]-5-methyl-4-[3-(trifluoromethyl)phenyl]-4,7-dihydro[1,2,4]triazolo[1,5-a]pyrimidine-6-carboxylate]
- IC50 [1]: < 0.3 nM

SMILES: CCOC(=O)C1=C(C)N(c2cccc(C(F)(F)F)c2)c2nc3cncnc3n2C1c1ccc(C#N)cc1 (racemic) [Example 78, Ethyl(rac)-9-(4-cyanophenyl)-7-methyl-6-[3-(trifluoromethyl)phenyl]-6,9-dihydropyrimido[1,2-e]-purin-8-carboxylate]
- IC50 [1]: 3 nM

SMILES: CC(C)(C)C(=O)Oc1ccc(S(=O)(=O)Nc2ccccc2C(=O)NCC(=O)O)cc1 [sivelestat]
- IC50 (pancreas elastase): 5600 nM

SMILES: CC1=C(C#N)[C@@H](c2ccc(C#N)cc2)n2nc(NC(=O)C3CCCCC3)nc2N1c1cccc(C(F)(F)F)c1 [Example 23, N-{(7R)-6-Cyano-7-(4-cyanophenyl)-5-methyl-4-[3-(trifluoromethyl)phenyl]-4,7-dihydro[1,2,4]triazolo[1,5-a]pyrimidin-2-yl}cyclohexanecarboxamide]
- IC50 [1]: < 0.3 nM

SMILES: CCNc1nc2n(n1)[C@H](c1ccc(C#N)cc1)C(C#N)=C(C)N2c1cccc(C(F)(F)F)c1 [Example 56, (7R)-7-(4-Cyanophenyl)-2-(ethylamino)-5-methyl-4-[3-(trifluoromethyl)phenyl]-4,7-dihydro-[1,2,4]triazolo[1,5-a]pyrimidine-6-carbonitrile]
- IC50 [1]: < 0.3 nM

SMILES: CC1=C(C#N)[C@@H](c2ccc(C#N)cc2S(C)(=O)=O)n2nc(NC(=O)C3CC3)nc2N1c1cccc(C(F)(F)F)c1 [Example 35, N-{(7S)-6-Cyano-7-[4-cyano-2-(methylsulfonyl)phenyl]-5-methyl-4-[3-(trifluoromethyl)phenyl]-4,7-dihydro[1,2,4]triazolo[1,5-a]pyrimidin-2-yl}cyclopropanecarboxamide]
- IC50 [1]: < 0.3 nM

SMILES: CC1=C(C#N)[C@@H](c2ccc(C#N)cc2)n2nc(NC(=O)NCCO)nc2N1c1cccc(C(F)(F)F)c1 [Example 53, 1-{(7R)-6-Cyano-7-(4-cyanophenyl)-5-methyl-4-[3-(trifluoromethyl)phenyl]-4,7-dihydro[1,2,4]triazolo[1,5-a]pyrimidin-2-yl}-3-(2-hydroxyethyl)urea]
- IC50 [1]: < 0.3 nM

SMILES: CC1=C(C#N)C(c2ccc(C#N)cc2)n2nc(C(C)C)nc2N1c1cccc(C(F)(F)F)c1 (racemic) [Example 67, (rac)-7-(4-Cyanophenyl)-5-methyl-2-(1-methylethyl)-4-[3-(trifluoromethyl)phenyl]-4,7-dihydro-[1,2,4]triazolo[1,5-a]pyrimidine-6-carbonitrile]
- IC50 [1]: 85 nM

Source: US8569314B2, “Triazolo and tetrazolo pyrimidine derivatives as HNE inhibitors for treating COPD” (Bayer Intellectual Property GmbH, priority 2009, dated 2013)
